Experimental data from patent US9951088B2, “D2 receptor modulators and methods of use thereof in the treatment of diseases and disorders” (SUNOVION PHARMACEUTICALS INC., priority 2012, dated 2018).

Experiments:
[1] = biological target: T1, long isoform of human D2 receptor (Homo sapiens, UniProt P14416); test: Arrestin Antagonist Assay (DRD2L PathHunter CHO-K1 cells, vs EC80 dopamine); conditions: for Emax: CHO-K1, read-out: β-arrestin (antagonist mode) Imax
Description: (§1) Cell Lines: Activities of the compounds were assessed using a Chinese Hamster Ovary (CHO—K1) cell line that recombinantly expressed the long isoform of human D2 receptor (DRD2L PathHunter cells). The D2 receptor DNA sequence was modified to contain a “ProLink” at its C-terminus which allowed complementation with an “enzyme acceptor” (EA)-tagged β-arrestin protein. The recruitment of the O-arrestin by the D2 receptor led to complementation of the ProLink and EA and formation of active β-galactosidase which generated a D2-specific signal that was measured.
Arrestin Antagonist Assay: One day prior to testing, a vial of high density stock of DRD2L PathHunter cells was thawed, and 1×10^7 cells diluted into 40 mL of growth media (Ham's F12/10% HI FBS/1% PSG). 20 μL cells per well were seeded directly into assay plates, and the plates were allowed to rest for 1 h at RT before incubating in a plate incubator overnight.
The plate was incubated for 30 min at 37° C. 15 μL PathHunter detection reagent was added to each well of the assay plate, which was then covered and incubated for 1 h at RT. The plate was read on an Envision reader using the Luminescence protocol, and the data were exported for analysis.
The IC50 values (concentration producing a half-maximal inhibitory response) were determined by non-linear regression analysis of the concentration-response curves.

[2] = biological target: T1, long isoform of human D2 receptor; test: cAMP HTRF Agonist Assay (DRD2L PathHunter CHO-K1 cells, forskolin-stimulated); conditions: for Emax: CHO-K1, read-out: cAMP (agonist mode) Emax
Description: Cell Lines: Activities of the compounds were assessed using a Chinese Hamster Ovary (CHO—K1) cell line that recombinantly expressed the long isoform of human D2 receptor (DRD2L PathHunter cells). The D2 receptor DNA sequence was modified to contain a “ProLink” at its C-terminus which allowed complementation with an “enzyme acceptor” (EA)-tagged β-arrestin protein. The recruitment of the O-arrestin by the D2 receptor led to complementation of the ProLink and EA and formation of active β-galactosidase which generated a D2-specific signal that was measured. The cAMP assay was measured in the same D2-expressing cell line. The D2 receptor inhibited cAMP formation so that the basal levels of cAMP were increased by the addition of an adenylate cyclase stimulator, forskolin.
cAMP HTRF Agonist Assay: Two days prior to testing, a vial of high density stock of DRD2L PathHunter cells was thawed, and cells were diluted into 10 mL of growth media (Ham's F12/10% HI FBS/1% PSG) and used to seed a T225 flask containing 50 mL of growth media. Cells were cultured for 2 days.
On the day of the assay, cells were dissociated in 5 mL cell dissociation buffer (enzyme free—Invitrogen) for 10-15 minutes at 37° C. Dissociated cells were diluted with 10 mL of growth media and counted. Cell counts were routinely ˜2×10^7 per T225. Cells were then pelleted at 1500 rpm for 5 min. Supernatant was aspirated, and cells were re-suspended in HBSS/20 mM Hepes, pH 7.4 to a cell density of 1×10^6/mL.
cAMP levels were determined using the Cisbio HTRF method. HRTF reagents (cAMP-HTRF acceptor fluorophore (d2) conjugate and cryptate-labeled anti-cAMP antibody) were prepared according to maunfacturers instructions. 5 μL of each were added to each well of an assay plate and incubated for 1 h at RT. The plate was then read on an Envision reader using the HTRF protocol, and data were exported for analysis.
(§2) The agonist Emax results were expressed as a percent of the dopamine control response ((measured specific response/control specific agonist response)×100) obtained in the presence of test article. The EC50 values (concentration producing a half-maximal specific response) were determined by non-linear regression analysis of the concentration-response curves.

[3] = biological target: T1, long isoform of human D2 receptor; test: Arrestin Agonist Assay (DRD2L PathHunter CHO-K1 cells, β-arrestin recruitment); conditions: for Emax: CHO-K1, read-out: β-arrestin (agonist mode) Emax
Description: as §1
Arrestin Agonist Assay: One day prior to testing, a vial of high density stock of DRD2L PathHunter cells was thawed, and 1×10^7 cells diluted into 40 mL of growth media (Ham's F12/10% HI FBS/1% PSG). 20 μL cells per well were seeded directly into assay plates, and the plates were allowed to rest for 1 h at RT before incubating in a plate incubator overnight.
5 μL diluted compound was added to cells in each well, and the assay plate was incubated for 90 min at 37° C. 12.5 μL PathHunter detection reagent was added to each well of the assay plate, which was then covered and incubated for 1 h at RT. The plate was read on an Envision reader using the Luminescence protocol, and the data were exported for analysis.
as §2

T1 sequence (P14416 whole entry, canonical isoform): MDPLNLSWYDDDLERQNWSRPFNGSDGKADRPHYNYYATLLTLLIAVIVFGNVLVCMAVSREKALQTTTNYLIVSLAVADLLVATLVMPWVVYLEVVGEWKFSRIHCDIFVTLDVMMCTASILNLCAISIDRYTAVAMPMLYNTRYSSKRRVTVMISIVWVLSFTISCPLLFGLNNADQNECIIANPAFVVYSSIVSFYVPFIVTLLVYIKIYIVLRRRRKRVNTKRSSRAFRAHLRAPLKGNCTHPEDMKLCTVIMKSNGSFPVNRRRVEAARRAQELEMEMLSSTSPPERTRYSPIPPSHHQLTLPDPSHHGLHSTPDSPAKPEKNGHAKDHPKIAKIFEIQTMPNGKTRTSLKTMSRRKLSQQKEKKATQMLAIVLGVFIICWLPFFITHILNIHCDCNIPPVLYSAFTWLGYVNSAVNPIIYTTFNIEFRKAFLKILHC

SMILES	IC50 [1] [nM]	Emax [1] [%]	IC50 [2] [nM]	Emax [2] [%]	EC50 [3] [nM]	Emax [3] [%]
O=C1NCCc2ccc(OCCCCN3CCc4ccccc4C3)nc2N1 [Compound 83, 8-(4-(3,4-dihydroisoquinolin-2(1H)-yl)butoxy)-4,5-dihydro-1H-pyrido[2,3-d][1,3]diazepin-2(3H)-one]	10 to 100	> 75	> 10000	< 10	> 10000	< 10
O=C1NCCc2ccc(OCCCCN3CCc4cc(F)ccc4C3)nc2N1 [Compound 84, 8-(4-(6-fluoro-3,4-dihydroisoquinolin-2(1H)-yl)butoxy)-4,5-dihydro-1H-pyrido[2,3-d][1,3]diazepin-2(3H)-one]	10 to 100	> 75	> 10000	< 10	> 10000	< 10
O=C1NCCc2ccc(OCCCCN3CCc4cc(Cl)ccc4C3)nc2N1 [Compound 85, 8-(4-(6-chloro-3,4-dihydroisoquinolin-2(1H)-yl)butoxy)-4,5-dihydro-1H-pyrido[2,3-d][1,3]diazepin-2(3H)-one]	10 to 100	> 75	> 10000	< 10	> 10000	< 10
O=C1NCCc2ccc(OCCCCN3CCc4sccc4C3)nc2N1 [Compound 86, 8-(4-(6,7-dihydrothieno[3,2-c]pyridin-5(4H)-yl)butoxy)-4,5-dihydro-1H-pyrido[2,3-d][1,3]diazepin-2(3H)-one]	10 to 100	> 75	> 10000	< 10	> 10000	< 10
O=C1NCCc2ccc(OCCCCN3CCc4ccsc4C3)nc2N1 [Compound 87]	10 to 100	> 75	> 10000	< 10	> 10000	< 10
O=C1NCCc2ccc(OCCCCN3CCc4c(Cl)cccc4C3)nc2N1 [Compound 88, 8-(4-(5-chloro-3,4-dihydroisoquinolin-2(1H)-yl)butoxy)-4,5-dihydro-1H-pyrido[2,3-d][1,3]diazepin-2(3H)-one]	100 to 1000	25 to 50	< 10	50 to 75	10 to 100	25 to 50
O=C1NCCc2ccc(OCCCCN3CCc4nn(-c5ccccc5)cc4C3)nc2N1 [Compound 89, 8-(4-(2-phenyl-6,7-dihydro-2H-pyrazolo[4,3-c]pyridin-5(4H)-yl)butoxy)-4,5-dihydro-1H-pyrido[2,3-d][1,3]diazepin-2(3H)-one]	10 to 100	50 to 75	10 to 100	25 to 50	10 to 100	25 to 50
O=C1NCCc2ccc(OCCCCN3CCc4nn(-c5ccccn5)cc4C3)nc2N1 [Compound 90, 8-(4-(2-(pyridin-2-yl)-6,7-dihydro-2H-pyrazolo[4,3-c]pyridin-5(4H)-yl)butoxy)-4,5-dihydro-1H-pyrido[2,3-d][1,3]diazepin-2(3H)-one]	> 10000	< 10	< 10	> 75	10 to 100	> 75
O=C1CCc2ccc(OCCCCN3CCc4ccccc4C3)cc2N1 [Compound 91, 7-(4-(3,4-dihydroisoquinolin-2(1H)-yl)butoxy)-3,4-dihydroquinolin-2(1H)-one]	10 to 100	> 75	< 10	25 to 50	< 10	10 to 25
c1ccc2c(N3CCN(CCCCOc4ccc5cn[nH]c5c4)CC3)cccc2c1 [Compound 92, 6-(4-(4-(naphthalen-1-yl)piperazin-1-yl)butoxy)-1H-indazole]	10 to 100	50 to 75	10 to 100	25 to 50	< 10	25 to 50
CCOc1ccccc1N1CCN(CCCCOc2ccc3cn[nH]c3c2)CC1 [Compound 93, 6-(4-(4-(2-ethoxyphenyl)piperazin-1-yl)butoxy)-1H-indazole]	10 to 100	> 75	< 10	25 to 50	< 10	10 to 25
c1ccc(N2CCN(CCCCOc3ccc4cn[nH]c4c3)CC2)nc1 [Compound 94, 6-(4-(4-(pyridin-2-yl)piperazin-1-yl)butoxy)-1H-indazole]	> 10000	< 10	< 10	> 75	< 10	> 75
Cc1cccc(N2CCN(CCCCOc3ccc4cn[nH]c4c3)CC2)c1C [Compound 95, 6-(4-(4-(2,3-dimethylphenyl)piperazin-1-yl)butoxy)-1H-indazole]	10 to 100	> 75	10 to 100	10 to 25	> 10000	< 10
Cc1ccccc1N1CCN(CCCCOc2ccc3cn[nH]c3c2)CC1 [Compound 96, 6-(4-(4-(o-tolyl)piperazin-1-yl)butoxy)-1H-indazole]	100 to 1000	> 75	10 to 100	25 to 50	10 to 100	10 to 25
Clc1ccccc1N1CCN(CCCCOc2ccc3cn[nH]c3c2)CC1 [Compound 97, 6-(4-(4-(2-chlorophenyl)piperazin-1-yl)butoxy)-1H-indazole]	10 to 100	50 to 75	< 10	50 to 75	< 10	10 to 25
Clc1cccc(N2CCN(CCCCOc3ccc4cn[nH]c4c3)CC2)c1 [Compound 98, 6-(4-(4-(3-chlorophenyl)piperazin-1-yl)butoxy)-1H-indazole]	100 to 1000	25 to 50	10 to 100	50 to 75	10 to 100	25 to 50
COc1cccnc1N1CCN(CCCCOc2ccc3cn[nH]c3c2)CC1 [Compound 99, 6-(4-(4-(3-methoxypyridin-2-yl)piperazin-1-yl)butoxy)-1H-indazole]	10 to 100	> 75	< 10	25 to 50	< 10	10 to 25
